Our source for the LC retention time values is the RepoRT retention time repository.

The data set can be described thus: HILIC, Merck SeQuant ZIC-HILIC, 25 °C, 0.25 mL/min; A: water + 16 mM ammonium formate; B: acetonitrile + 0.1% formic acid, pH 3; gradient (min/%B) 0/97 2/97 10/70 15/10 17/10 18/97 25/97. The settings on record: stereoisomer not certain.
As for `O=C(O)Cc1ccc(O)cc1` [4-Hydroxyphenylacetic acid], the LC retention time turned out to be 2.34 min.

For the compound `O=C(O)Cc1cnc[nH]1` [4-IMIDAZOLEACETATE], the LC retention time was found to be 13.6 min.

With `Cc1ccc(O)c(O)c1` [4-METHYLCATECHOL], the LC retention time turned out to be 1.84 min.

For `Cc1ncc(CO)c(C(=O)O)c1O` [4-PYRIDOXATE], the LC retention time came out at 2.22 min.

For the compound `CC1OC(n2cnc3c(N)ncnc32)C(O)C1O` (stereo not drawn) [5'-DEOXYADENOSINE], the LC retention time is 2.24 min.

Take `NCC(=O)CCC(=O)O` [5-AMINOLEVULINATE]: the LC retention time amounted to 13.8 min.

Regarding `NCCCCC(=O)O` [5-AMINOPENTANOATE], the LC retention time amounted to 12.6 min.

On to `NCC(O)CCC(N)C(=O)O` (stereo not drawn) [5-HYDROXYLYSINE], for which the LC retention time came out at 16.2 min.

Take `O=c1[nH]cc(CO)c(=O)[nH]1` [5-HYDROXYMETHYLURACIL]: the LC retention time worked out at 8.25 min.

For the compound `Oc1ccc2[nH]ccc2c1` [5-Hydroxyindole], the LC retention time came out at 2 min.

Consider `O=C(O)c1cncc(O)c1` [5-Hydroxynicotinic acid], for which the LC retention time is 6.4 min.

Turning to `Cc1cnc(=O)[nH]c1N` [5-METHYLCYTOSINE], the LC retention time was found to be 11.6 min.

Take `O=C(O)c1ccc(CO)o1` [5-hydroxymethyl-2-furancarboxylic acid]: the LC retention time was 4.31 min.

As for `CC(CCC(=O)O)C1CCC2C3CCC4CC(=O)CCC4(C)C3CCC12C` (stereo not drawn) [5b-cholanic acid-3-ONE], the LC retention time is 1.63 min.

For the compound `CC(CCC(=O)O)C1CCC2C3C(O)C(O)C4CC(O)CCC4(C)C3CCC12C` (stereo not drawn) [5b-cholanic acid-3a-6a-7a-TRIOL], the LC retention time was 2.19 min.

Take `CC(CCC(=O)O)C1CCC2C3C(=O)CC4CC(O)CCC4(C)C3CC(O)C12C` (stereo not drawn) [5b-cholanic acid-3a-12a-DIOL-7-ONE]: the LC retention time stood at 2.17 min.

In the case of `CC(CCC(=O)O)C1CCC2C3C(=O)CC4CC(O)CCC4(C)C3CC(=O)C12C` (stereo not drawn) [5b-cholanic acid-3a-OL-7-12-DIONE], the LC retention time turned out to be 1.92 min.

For the compound `CC(CCC(=O)O)C1CCC2C3CCC4CC(O)CCC4(C)C3CC(=O)C12C` (stereo not drawn) [5b-cholanic acid-3a-OL-12-ONE], the LC retention time came to 1.81 min.

Turning to `Nc1ccc(C(=O)O)cn1` [6-Aminopyridine-3-carboxylic acid], the LC retention time amounted to 8.01 min.

As for `NCCc1cc(O)c(O)cc1O` [6-HYDROXYDOPAMINE], the LC retention time came to 12.6 min.

For the compound `O=C(O)c1ccc(=O)[nH]c1` [6-HYDROXYNICOTINATE], the LC retention time amounted to 6.01 min.

As to `O=C(O)C(O)C(O)C(O)C(O)COP(=O)(O)O` (stereo not drawn) [6-PHOSPHOGLUCONATE], the LC retention time is 15.1 min.

Consider `Cn1c[n+](C2OC(CO)C(O)C2O)c2nc(N)[nH]c(=O)c21` (stereo not drawn) [7-Methylguanosine], for which the LC retention time worked out at 12.9 min.

As to `Cn1cnc2[nH]c(=O)[nH]c(=O)c21` [7-Methylxanthine], the LC retention time worked out at 2.21 min.

As to `Cn1cnc2nc(N)[nH]c(=O)c21` [7-methylguanine], the LC retention time came out at 9.77 min.

With `O=C(O)CCCCCCCCCO` [10-HYDROXYDECANOATE], the LC retention time amounted to 1.75 min.

As to `CCCCCCCCCCCCCC(=O)OCC(O)COP(=O)([O-])OCC[N+](C)(C)C` (stereo not drawn) [14-0_LysoPC], the LC retention time came out at 11.3 min.

In the case of `CCCCCCCCCCCCCC(=O)OC(CO)COP(=O)(O)OCCN` (stereo not drawn) [14-0_LysoPE], the LC retention time amounted to 10.3 min.

In the case of `CCCCCCCCCCCCCCCC(=O)OCC(O)COP(=O)([O-])OCC[N+](C)(C)C` (stereo not drawn) [16-0_LysoPC], the LC retention time came to 11.2 min.

Take `CCCCCCCCCCCCCCCC(=O)OCC(O)COP(=O)(O)OCCN` (stereo not drawn) [16-0_LysoPE]: the LC retention time is 10.2 min.

As to `CCCCCCCCCCCCCCCC(=O)OCC(O)COP(=O)(O)O` (stereo not drawn) [16:0_LysoPA], the LC retention time came to 9.22 min.

For the compound `C#CC1(O)CCC2C3CCc4cc(O)ccc4C3CCC21C` (stereo not drawn) [17a-Ethynylestradiol], the LC retention time came to 1.68 min.

`CC(=O)C1(O)CCC2C3CC=C4CC(O)CCC4(C)C3CCC21C` (stereo not drawn) [17a-Hydroxypregnenolone_H2]: the LC retention time was 2.17 min.
